Read-outs that look alike come from different tables or passages of the source. Each block holds one compound with its values, some of them ahead of it.
Key:
[1] = HPLC stability assay of prodrugs in buffers pH 3, 5, 7, 7.4 (PBS), 9 at 37 °C for 72 h without trigger; assay type: physicochemical; settings: 37 °C, 72 h, pH 3–9
Protocol: The diastereomeric mixture of each β-glucuronide–PHB-β-lapachone prodrug (16a–j) and PAB derivative 22 were then tested for stability in citrate-phosphate buffers across a range of pHs (3, 5, 7, 7.4 (PBS), 9) via an HPLC stability assay. For derivatives 16a, 16b, 16d, 16e, 16h, and 16j, when no β-glucuronidase enzyme was added, both diastereomers of 16 were fully stable at 37 °C for 72 h (Figures a,d, S63, S64, S66–68, S71, and S73). […] This premature release was greatest at acidic pH 3 for 16g, with very minimal lapachone release detected at pH 5–9 (Figure c). The released lapachone was quantified and compared to the starting concentration of each prodrug to calculate the percent of the prodrug that had been prematurely released (Figures f,g, S76). […] Therefore, a trade-off exists between ring activation, improving the release rate from 3 while also decreasing prodrug stability, and it rendered 16g clinically disadvantageous.  5 Stability of prodrugs is pH dependent. The representative HPLC traces for (a) a stable prodrug 16a and (b) an unstable prodrug 16g are shown after incubation at 37 °C in pH 7.4 PBS buffer. […] (c) The area of the lapachone peak for 16g normalized to the IS was plotted, displaying substantial growth over time at pH 3. […] For panels c–g, each value is plotted as the mean ± SD of three replicates. The HPLC traces (Figures S50–S62) and peak area graphs (Figures S63–S75) for all other derivatives can be found in the Supporting Information. The stability of 26 was also evaluated from pH 3–9 (Figures d,f–h S86–S87). […] This degradation was the largest at pH 9, with a measurable decrease in the prodrug peak area after 72 h (Figure g). The lapachone released after 72 h was quantified using a standard curve (Tables S6.1–S6.2). At pH 3 and 5, approximately 0.2% of the total prodrug lapachone had been released.

PANC-1 [2] = test: PDAC cell viability after 72 h of treatment, PANC-1; assay type: cell-based; settings: Homo sapiens, PANC-1, exogenous β-glucuronidase added
Protocol: (§1) All ortho-quinone prodrug derivatives were tested on two pancreatic cancer cell lines, PANC-1 and AsPC-1, to assess efficacy in cell killing (Figures , S88–89, S91, Tables , and S8.1). Exogenous β-glucuronidase was added to the cell media to mimic the extracellular enzyme present in the TME. […] Those derivatives with release rates slower than that of 16a, like 16e, had less efficacy in cells comparatively (Table ).
(§2) 7 PDAC cell viability with prodrug treatment. Representative PANC-1 (a) and AsPC-1 (b) cell viability data of four β-lapachone prodrug derivatives after 72 h of treatment with exogenous β-glucuronidase added. Panels (c, d) show the toxicity of functional prodrugs up to 100 μM in PANC-1 (c) and AsPC-1 (d) cells without exogenous β-glucuronidase enzyme present after 72 h incubation.
(§3) To assess the TW of the prodrug derivatives, we tested each of them in both the PANC-1 and AsPC-1 cell lines at up to 100 μM without the β-glucuronidase enzyme present. In agreement with the HPLC stability assay data, we saw no toxicity in all stable prodrug derivatives up to this concentration (Figure c,d). […] In comparison, all the stable glucuronide prodrug derivatives retained 100% viability at 100 μM. […] It is generally considered that a drug has a good therapeutic safety profile if the TI is greater than 10, which our best derivatives far exceed, signaling that our prodrug is safe to deliver systemically in future in vivo experiments and should not cause any adverse effects in areas where β-glucuronidase is not overexpressed. ,

AsPC-1 [3] = test: PDAC cell viability after 72 h of treatment, AsPC-1; assay type: cell-based; settings: Homo sapiens, ASPC1, exogenous β-glucuronidase added, average ± SD of biological replicates, read-out: AsPC-1 IC50
Protocol: as §1, §2, §3

PANC-1 [4] = test: Reactive oxygen species generation after 24 h treatment, PANC-1; assay type: cell-based
Excerpt: (§4) 8 Target expression, ROS production, and quinone methide toxicity in PDAC Cell Lines. […] The A549 cell line was used as a positive control for NQO1 enzyme expression, and the HL-60 cell line was used as a positive control for 5-LO enzyme expression. For β-glucuronidase expression, two consecutive technical replicates are shown for each biological replicate, with all three biological replicates represented for both cell lines. […] Results were normalized to baseline cellular ROS activity as 0 and positive control tert-butyl hydrogen peroxide (TBHP) as 100. Adjusted p-values of 0.0012 (**) and <0.0001 (****) are shown for statistically significant comparisons.

AsPC-1 [5] = test: Reactive oxygen species generation after 24 h treatment, AsPC-1; assay type: cell-based
Excerpt: as §4

[6] = set-up: method as in Dunsmore et al.; settings: k obs of compound 4 previously reported, ref Dunsmore et al., cited from earlier work
[7] = HPLC stability assay of prodrugs in buffers pH 3, 5, 7, 7.4 (PBS), 9 at 37 °C for 72 h without trigger; assay type: physicochemical; settings: after dilution into aqueous buffer
[8] = set-up: method as in Gong et al.; settings: pH 7.4; 5 equiv H2O2; ref Gong et al.; cited from earlier work
[9] = no extracellular enzyme, compared to β-lapachone

stability of the prodrug without triggering enzyme [1]: trace β-lapachone release was detected | IC50 (PANC-1 [2]; average ± SD of biological replicates, read-out: PANC-1 IC50): 700 ± 200 nM | IC50 (PANC-1 [2]; representative experiment, read-out: IC50 on PANC-1, representative viability data (Figure 7a)): 600 nM | IC50 (AsPC-1 [3]): 2900 ± 60 nM | ROS generation with β-glucuronidase (PANC-1 [4]; β-glucuronidase added): restored generation of ROS | ROS generation with β-glucuronidase (AsPC-1 [5]; β-glucuronidase added): restored generation of ROS
SMILES: COc1cc(O[C@@H]2O[C@H](C(=O)O)[C@@H](O)[C@H](O)[C@H]2O)ccc1CC1(O)C(=O)C2=C(OC(C)(C)CC2)c2ccccc21 (mixture of isomers) [16f]
ROS generation without β-glucuronidase (PANC-1 [4]; [9]): significantly less ROS than β-lapachone alone | ROS generation without β-glucuronidase (AsPC-1 [5]; [9]): significantly less ROS than β-lapachone alone

SMILES: CC1(C)CCC2=C(O1)c1ccccc1C(O)(Cc1ccc(N)cc1)C2=O (stereo not drawn) [compound 4]
half-life of quinone release at pH 5 ([6]; pH 5): 101 ± 7 h | t 1/2 at pH 6 (drug release half-life) ([6]; pH 6): 931 h

time to complete hydrolysis into boronic acid 26 [7]: ≤ 5 min
SMILES: CC1(C)CCC2=C(O1)c1ccccc1C(O)(Cc1ccc(B3OC(C)(C)C(C)(C)O3)cc1)C2=O (stereo not drawn) [compound 24]
time to complete release of 1 [8]: ≤ 2 h

Reference: PMC12766730, “Controlled Self-Immolative Release of β‑Lapachone via an Optimized para-Hydroxybenzyl Linker for Targeted Pancreatic Cancer Therapy” (Journal of the American Chemical Society, 2025)
